Three compounds from patent publication US20260199485A1, “RNA DEGRADERS AND USES THEREOF” (Arrakis Therapeutics, Inc., priority 2022, published 2026) can be followed below.

What is called Kd is the equilibrium constant for the complex coming apart.

{DBCO-TEG} = DBCO-TEG group for click conjugation of the bait; l = locked nucleic acid (LNA); d = 2'-deoxy (DNA) A value given as a limit tells only on which side of the number the result lay.

Series [1] deals with T1, CNOT7 (Homo sapiens, UniProt Q9UIV1).
T1 construct: biotin (biotinylated); purchased Ichor Life Sciences
T1 sequence (Q9UIV1 whole entry): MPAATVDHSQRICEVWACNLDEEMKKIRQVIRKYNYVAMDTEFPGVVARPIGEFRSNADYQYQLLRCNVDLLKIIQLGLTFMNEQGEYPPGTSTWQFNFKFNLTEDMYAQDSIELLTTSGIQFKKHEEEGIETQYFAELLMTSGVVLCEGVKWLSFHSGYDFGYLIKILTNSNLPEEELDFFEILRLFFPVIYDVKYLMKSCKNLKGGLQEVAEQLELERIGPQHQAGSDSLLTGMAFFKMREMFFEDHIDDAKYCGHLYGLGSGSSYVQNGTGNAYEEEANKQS
Nature of the series: Binding of compounds to CNOT7 by surface plasmon resonance (SPR). The conditions noted are these: Table 4; dissociation constant for CNOT7. The method, boiled down: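 Biotinylated CNOT7 captured on a streptavidin chip (~7,500 RU); compounds injected at several concentrations (120 s association, 120 s dissociation, 30 ul/min) in 20 mM HEPES pH7.5, 100 mM KCl, 3 mM MgCl2, 1 mM TCEP, 0.05% tween-20, 2% DMSO. Reference- and solvent-corrected sensograms fit to a 1:1 steady-state affinity model.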
(In SPR one partner is held on a chip, and binding of the other changes the refractive index at the surface.)

The target of series [2] is T1, CNOT7. Nature of the series: AMP competition assay by SPR (active site vs other site of CNOT7). Format: binding. As to conditions: combination with AMP, increasing concentrations. The method, then:
In order to evaluate if the compounds bound to the active site of CNOT7, an AMP competition experiment was performed. FIG. 5 provides a schematic of a surface plasmon resonance (SPR) experiment to interrogate if a CNOT7 binding compound binds in the active site of CNOT7. Briefly, AMP, which is a known binder to the active site, was interrogated at increasing concentrations for binding to CNOT7. As a next step, a CNOT7 binding compound was interrogated at increasing concentrations for binding to CNOT7. As a final step a combination of AMP and CNOT7 binding compound was interrogated by SPR at increasing concentrations for binding to CNOT7. If the signals were additive, AMP and the CNOT7 compounds bind to independent sites on CNOT7. […] In contrast, if the signals are not additive, this would indicate that AMP and CNOT7 […] for the same site. […] As a control, literature compounds that are active site binders, compounds A, B and C, are not additive when combined with AMP.

Series [3] concerns the target T2, CNOT7-FKBP12(F36V) fusion protein (Homo sapiens, UniProt Q9UIV1).
T2 construct: expressed in transfected cells; host or cells: H1299 cells; anti-HA immunoprecipitation, HA-peptide elution
Nature of the series: Biochemical gel assay: degradation/deadenylation of RNA substrate with immunoprecipitated CNOT7-FKBP12(F36V). The conditions noted are these: compound added to the CNOT7 and RNA mixture (FIG. 11). The text has this: Biochemical reporter systems were generated to evaluate the ability of CNOT7 binding compounds to accelerate the degradation of RNA by CNOT7. […] Generation of the target RNA was described in the previous experiment. […] The bifunctional molecules consist of Compound 1-4 and the following rSM:
which binds to the RNA sequence of AST-X, or the rSM linked to a tag that binds CNOT7-FKBPV. Specifically, the tag is compound AP1867 (CAS NO.: 195514-23-9), a known binder of FKBPV, resulting in the rSM-AP1867tag. The CNOT7-FKBPV is obtained by immunoprecipitation of cell engineered to express CNOT-FKBPV. Specifically, H1299 cells were transfected with plasmid expressing HA-tagged CNOT7-FKBP12(F36V) fusion protein. After 24 hours, cells were pelleted and lysed in the following lysis buffer: 20 mM HEPES pH 7.3, 0.2 mM EGTA, 10% glycerol, 0.1 mM DTT with cOmplete EDTA-free protease inhibitors (Millipore). After freeze-thawing, NaCl was added to a concentration of 400 mM and lysates were pelleted to clear cellular debris. Cleared lysate was adjusted to buffer conditions containing 0.1% NP-40 and 150 mM NaCl before being applied to Pierce Anti-HA magnetic beads (ThermoFisher) at 4° C. for 2-20 hours with end-over-end rotation. After washing, bound protein was competitively eluted with 2 mg/mL HA peptide (ThermoFisher) in activity assay buffer at 4° C. for 2-20 hours. It should be appreciated that this immunoprecipitation protocol will result in tagged CNOT7 that will likely have other components of the CCR4-NOT complex bound as well.
The reactions were incubated at 37° C., with specified timepoints removed from the reaction and combined with 2× formamide RNA loading buffer with 10 mM EDTA before boiling for 3 minutes to quench the reaction. Samples were run on a pre-warmed 15% TBE-Urea polyacrylamide gel at 180V for 90 minutes and then imaged using Cy2 settings on the Azure Biosystems 600 Imaging System. […] It should be noted that the CCR4-NOT complex includes proteins other than CNOT7, for instance CNOT6, that have deadenylation and/or exonuclease activity.
These findings were confirmed in the biochemical assay described above. […] In contrast, literature compounds that are active site binders, compounds A, B and C, structure depicted on the right-hand side, do interfere with the ability of CNOT7 to degrade RNA (See center panel of gel).
Heterobifunctional molecules were generated by conjugating the rSM depicted above, which binds RNA with an AST-X sequence, to AP1867 (a small molecule binder of FKBP12(F36V)), resulting in rSM-AP1867tag. In addition, I-243 was conjugated to the rSM resulting in compounds 1-329 and I-371, depicted in FIG. 17. Fluorescently labeled RNA substrates were refolded in the presence of Mg^2+ and incubated 10, 25, or 50 μM doses of heterobifunctional molecules for 30 minutes at room temperature before the enzymatic reaction was initiated with the elution fraction (containing CNOT7-FKBP12(F36V) fusion protein) from the immunoprecipitation protocol above. The reactions were incubated at 37° C., with specified timepoints removed from the reaction and combined with 2× formamide RNA loading buffer with 10 mM EDTA before boiling for 3 minutes to quench the reaction. Samples were run on a pre-warmed 15% TBE-Urea polyacrylamide gel at 180V for 120 minutes and then imaged using Cy2 settings on the Azure Biosystems 600 Imaging System (See FIGS. 18, 19A and 19B). In addition, for 1-371 and the control rSM-AP1867tag, the disappearance of the full-length substrate band was quantified using ImageJ and plotted over time (FIG. 19B).

Series [4] relates to Renilla STAT3 3′UTR reporter. Nature of the series: Cellular dual luciferase reporter assay (Renilla STAT3 3′UTR reporter, tagged CNOT7) in H1299 cells. Format: cell-based. The conditions noted are these: 10 nM, 30 nM, 100 nM ASO-bait, 24 hours, with CNOT7, relative to non-targeting ASO-bait. From the text:
Reporter constructs for cellular assays are depicted in FIG. 12. A luciferase reporter construct was designed to the 3′ UTR of STAT3 fused to Renilla luciferase, which contains the PEST and CP1 destabilizing domains. A second luciferase reporter construct was designed using the 3′UTR of HBB fused to Firefly luciferase, which contains the PEST and CP1 destabilizing domains. The reporter design for both constructs was previously described in Luo E C, et al. Nat Struct Mol Biol. 2020; 27(10):989-1000.
An antisense oligo was conjugated to the bait molecule AP1867, which binds FKPB12 via click-chemistry to generate a heterobifunctional molecule (ASO-bait). The bait molecule was chemically modified to contain an azide to allow for click chemistry. […]
A model system to interrogate the ability of a bifunctional RNA binder—CNOT7 binder is depicted in FIG. 13. A parallel approach utilizing a luciferase readout together with mRNA expression analysis was employed to assess the bifunctional molecule's capability to recruit CNOT7 to target mRNA and mediate mRNA degradation. […] A parallel plate was assessed for cell viability using CellTiter Glo (Promega). Data was analyzed by normalizing reporter signal relative to normalizer signal, and this ratio was then normalized to GFP. […]

The next series has as its system STAT3 mRNA. Nature of the series: Endogenous STAT3 mRNA expression assay (ddPCR) in H1299 cells expressing tagged CNOT7. The conditions noted are these: 200 nM ASO-bait, 24 hours, with CNOT7, relative to non-targeting ASO-bait and GFP control. Format: cell-based. The method, then:
For the endogenous mRNA expression assay, H1299 cells were seeded in a 12-well plate the day before transfection. On the following day, the cells were transfected with the plasmid expressing tagged CNOT7 and incubated for 24 hours. The following day, cells were transfected with 200 nM of the targeting or non-targeting ASO-bait molecules and incubated for 24 hours. In addition, cells were also transfected with a known STAT3 silencing ASO as a positive control for STAT3 mRNA knockdown. Samples were directly lysed in-well for RNA purification using the Promega Maxwell Automated RNA Extractor, followed by single-strand cDNA synthesis. The resulting cDNA was serially diluted at 1:100, which was used in the ddPCR reaction with primers designed to STAT3 and housekeeping genes (CLTC and TBP), the sequences of which are shown below. Data were analyzed by normalizing STAT3 relative to the geomean of TBP and CLTC. All transfections were performed using Lipofectamine 3000 (Invitrogen). […] Thus, the bifunctional molecule is capable of accelerating the degradation of endogenously expressed RNA.

T2 sequence (Q9UIV1 with tags, fused parts or gaps): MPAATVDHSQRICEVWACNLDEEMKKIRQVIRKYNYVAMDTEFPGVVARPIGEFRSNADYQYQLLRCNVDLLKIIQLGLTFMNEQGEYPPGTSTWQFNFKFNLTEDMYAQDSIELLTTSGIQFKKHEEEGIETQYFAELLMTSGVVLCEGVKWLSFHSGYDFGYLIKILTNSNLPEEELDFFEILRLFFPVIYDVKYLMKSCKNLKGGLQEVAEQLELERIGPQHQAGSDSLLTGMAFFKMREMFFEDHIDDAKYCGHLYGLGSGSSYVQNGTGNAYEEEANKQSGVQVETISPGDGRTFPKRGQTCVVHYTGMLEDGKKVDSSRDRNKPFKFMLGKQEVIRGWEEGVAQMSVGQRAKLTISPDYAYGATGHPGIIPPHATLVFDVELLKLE

As for `Cc1c[nH]c(=O)nc1SCC(=O)NCc1ccccc1` [Compound I-3, N-Benzyl-2-[(5-methyl-2-oxo-1H-pyrimidin-4-yl)sulfanyl]acetamide], at CNOT7 [1], the dissociation constant (Kd) was above 25 µM. At CNOT7 [2], the “SPR signal additive to AMP (additive = binds CNOT7 at a location other than the active site)” value is recorded as “additive to AMP”. The “interference with the ability of CNOT7 to degrade RNA” value in series [3] is reported as “did not interfere”.
The corresponding values for `COc1ccc(CNC(=O)CSc2nc(=O)[nH]cc2C)cc1` [Compound I-4] are 1 to 25 µM, “additive to AMP” and “did not interfere”.
For the compound “targeting ASO-bait: "An antisense oligo was conjugated to the bait molecule AP1867"; oligonucleotide binds "a sequence in the 3′UTR of STAT3" (SEQ ID NO:3) (antisense GAAGTACACATTGG; sugars from the 5' end dldldldldldldl, all phosphorothioate, 5' {DBCO-TEG}, methylation of C not given here; Bait AP1867 attached by click chemistry to the 5' DBCO-TEG)”, the “reporter signal (Renilla STAT3 3′UTR normalized to Firefly HBB and GFP)” value in series [4] is recorded as “reduction in reporter signal”. The “STAT3 expression (mRNA, ddPCR, normalized to TBP and CLTC)” value in the series with STAT3 mRNA was “reduction in STAT3 expression”.
